This note sets out measurements from patent US20160045498A1, “METHODS OF TREATING DISEASES CHARACTERIZED BY EXCESSIVE WNT SIGNALLING” (THE WALTER AND ELIZA HALL INSTITUTE OF MEDICAL RESEARCH, priority 2013, published 2016).

Structures are written as SMILES.

Assay [1] has as its system small intestine. In words: Irradiation induced intestinal regeneration. Format: in vivo. Particulars: gp130^F/F mice, AZD1480 30 mg/kg, 72 h after γ-irradiation (14 Gy). Here is the method:
a Immunohistochemical analysis for the proliferation marker PCNA on sections of small intestines of wild-type (Wt), gp130^F/F (F/F), Stat3^+/−, gp130^F/F;Stat3^+/− (F/F Stat3^+/−), gp130^ΔStat/ΔStat (Δ/Δ) and gp130^ΔStat/+ (Δ/+) as well as of Wt and F/F mice treated with Jak2 kinase inhibitor AZD1480 (Jak2i; 30 mg/kg) 72 h after exposure to γ-irradiation. Scale bar=100 μm.
b Enumeration of intact crypts in cross sections from the proximal small intestine stained for PCNA obtained 72 h after exposure of mice of the indicated genotype to γ-irradiation. (*p≦0.04; n=3 mice).
Mice were irradiated with a single dose of 14 Gy of γ-irradiation (0.414 Gy/min) to determine regenerative potential of the small intestine as described (Ashton et al., 2010).

Assay [2] deals with SW480 cells. Kind of assay: SW480 tumor xenografts. It counts as in vivo, human. The procedure:
a Tumour xenograft burden in BALB/c nude mice injected s.c. with SW480 cells in matrigel and receiving daily gavage with AZD1480 (30 mg/kg) or vehicle starting on the 5th day after cell inoculation. (*p≦0.018; two sided t-test; n=12 mice), d Immunohistochemical analysis of p21 expression in xenograft tumours following 35 days of treatment with Jak2 inhibitor AZD1480 or vehicle. Scale bar=100 μm. e RT-qPCR expression analysis for SOCS3, p21 and CYCLIN D1 in SW480 xenografts from FIG. 5a and b (p=0.04; n=3 mice). One flank of female BALB/c nude mice was injected subcutaneously with 2×10^6 SW480 cells resuspended in Matrigel (BD Biosciences)/PBS (1:1) at a final volume of 200 μl. Once tumor became palpable (>100 mm^3) approximately 5 days later, mice received continuous daily gavage of the Jak2 inhibitor AZD1480 ([…] et al., 2009) (30 mg/kg, a gift from Astra-Zeneca). Gene expression analysis by RT-qPCR was performed using the SybrGreen method (ABI) as described previously ([…] et al., 2008). Fold change was calculated using the 2^-ΔΔCT method (Livak et al., 2001). Protein expression was analysed by Western blot by transferring SDS-PAGE separated protein lysates to nitrocellulose membrane and blocked either in 5% non-fat milk powder and probed with antibodies detecting p16 (Santa Cruz; #sc-467), Bmi1 (Millipore #[…]), Actin (Sigma; #A2066) or Gapdh (Santa Cruz; #sc-69778). All antibodies were diluted 1:1000 in BSA or non-fat milk powder and incubations were performed overnight. Tissues were fixed and immunohistochemistry performed as described previously (Sansom et al., 2007). Primary antibodies used were rabbit phospho-Stat3 to Tyr705 (Santa Cruz #9134s, 1:150), mouse β-catenin (Transduction Laboratories, 1:300), rabbit PCNA (Santa Cruz #7907, 1:100), rabbit […] (Santa Cruz N-262. Lot #C1309, 1:200), and goat p21 (Santa Cruz #Sc-397-G; 1:100).
Background: A xenograft is tissue or cells of one species grown in another, often human tumour cells in immunodeficient mice.

Assay [3] deals with RKO cells. Kind of assay: RKO tumor xenografts. To be noted: RKO (low Wnt signaling), BALB/c nude mice, daily gavage 30 mg/kg from day 7. It counts as in vivo. The procedure: c, d Tumour xenograft burden in BALB/c nude mice injected s.c. with DLD1 cells or RKO cells in PBS and receiving daily gavage with AZD1480 (30 mg/kg) or vehicle starting on the 7th day after cell inoculation. (*p≦0.0004; two sided t-test; n=8).

In assay [4] the test system is SW480^APC cells. In words: p-STAT3 immunofluorescence and SOCS3 RT-qPCR in SW480APC cells. Format: cell-based, human. Here is the method:
d Immunofluorescence staining for β-CATENIN or tyrosine-705 phosphorylated STAT3 in an isogenic pair of SW480 cells grown in the presence of 1 μM AZD1480 (Jak2i) or vehicle. SW480 cells are APC mutant and lack expression of functional APC protein, while SW480^APC cells have been reconstituted to express wild-type APC. Scale bar=20 μm.
g RT-qPCR expression analysis for the STAT3 target gene SOCS3 in SW480 and SW480^APC CRC cells grown for 10 days under colony forming conditions in soft agar in the presence of the indicated treatment. Expression in the vehicle-treated cultures was arbitrarily set as 1. (*p≦0.04; triplicate cultures in each of two repeats).
SW480 and SW480^APC cells (Faux et al., 2004) were seeded in 2 ml of RPMI media supplemented with 10% FBS and 1% penicillin/streptomycin in 35 mm culture dishes at a density of 2×10^5 cells per dish. Three days later cultures were exposed to AZD1480 (1 μM) for 15 min. Co-immunofluorescence was then performed with antibodies to rabbit phospho-Stat3 (Tyr705, Santa Cruz #9134s, 1:200 dilution) and mouse β-catenin (Transduction Laboratories, 1:400). Colony formation assays of SW480 cells in soft agar were performed as described (Faux et al., 2004) in the presence of either AZD1480, (1 μM), the Stat3 inhibitor S3I-201 (Biovision, 50 μM) or recombinant human IL11 (Genetics Institute, 10 ng/ml). All experiments were performed in triplicates and repeated at least once. Vehicle was methylcellulose.
Gene expression analysis by RT-qPCR was performed using the SybrGreen method (ABI) as described previously (Phesse et al., 2008). Fold change was calculated using the 2^−ΔΔCT method (Livak et al., 2001). Protein expression was analysed by Western blot by transferring SDS-PAGE separated protein lysates to nitrocellulose membrane and blocked either in 5% non-fat milk powder and probed with antibodies detecting p16 (Santa Cruz; #sc-467), Bmi1 (Millipore #[…]), Actin (Sigma; #A2066) or Gapdh (Santa Cruz; #sc-69778). All antibodies were diluted 1:1000 in BSA or non-fat milk powder and incubations were performed overnight.
(In general: Quantitative PCR measures a nucleic acid by following its amplification.)

As for `Cc1cc(Nc2nc(N[C@@H](C)c3ncc(F)cn3)ncc2Cl)n[nH]1` [AZD1480], in assay [1], the intestinal regeneration entry was “impaired”. The “growth of established SW480 tumours” value in assay [2] (BALB/c nude mice, s.c., daily gavage 30 mg/kg from day 5) is recorded as “reduced the growth”. Moreover, in assay [2] (RNA from SW480 xenografts), the “CYCLIND1 expression (RT-qPCR)” value was “decrease”, the “SOCS3 expression (RT-qPCR)” value is listed as “decrease” and the “p21 expression (RT-qPCR)” value is given as “increased”. The “p21 expression in tumours (immunohistochemistry)” value in assay [2] (SW480 xenografts, 35 days of treatment, vs vehicle) is given as “increased”. In addition, the xenograft tumor growth result in assay [3] is reported as “did not result in reduced tumor growth”. Moreover, the “accumulation of activated (phosphorylated) p-STAT3” value in assay [4] (1 μM AZD1480) was “reduced accumulation”. Moreover, the SOCS3 expression result in assay [4] (RT-qPCR, AZD1480 1 μM, IL11 10 ng/ml) is given as “reduced SOCS3 expression”.
